According to US9023844B2, “Heterocyclylpyri (mi) dinylpyrazole as fungicidals” (Bayer Intellectual Property GmbH, priority 2011, dated 2015):

assay: Determination of log P values by HPLC on a reverse phase column (C18), EEC-Directive 79/831 Annex V.A8 (Methods A, B, C); format: physicochemical; details: Method B (HPLC, reverse phase C18)
Method: (§1) Note on the determination of the log P values and mass detection: The stated log P values were determined in accordance with EEC-Directive 79/831 Annex V.A8 by HPLC (High Performance Liquid Chromatography) on a reverse phase column (C18). Agilent 1100 LC system; 50*4.6 Zorbax Eclipse Plus C18 1.8 micron; eluent A: acetonitrile (0.1% formic acid); eluent B: water (0.09% formic acid); linear gradient from 10% acetonitrile to 95% acetonitrile in 4.25 mins, then 95% acetonitrile for a further 1.25 mins; oven temperature 55° C.; flow rate: 2.0 mL/min. The mass detection was effected with an Agilend MSD system.
as §1, with “HP1100;” for “Agilent 1100 LC system;”, “(0.08%” for “(0.09%”, “5%” for “10%”, “1.70 min,” for “4.25 mins,”, “1.00 min;” for “1.25 mins;”, “the Micronass ZQ2000 mass detector from Waters.” for “an Agilend MSD system.”
Note on the determination of the log P values and mass detection: The stated log P values were determined in accordance with EEC-Directive 79/831 Annex V.A8 by UPLC (Ultra Performance Liquid Chromatography) on a reverse phase column (C18). HP1100; 50*2.1 Zorbax Eclipse Plus C18 1.8 micron; eluent A: acetonitrile (0.09% formic acid); eluent B: water (0.1% formic acid); linear gradient from 10% A to 95% A in 3.25 min; oven temperature 40° C.; flow rate: 0.8 mL/min. The mass detection was effected with the LCT Premier or SQD mass detector from Waters.

SMILES | LogP
O=C(Nc1cc(-c2c(-c3ccc(F)cc3F)nn3c2OCCC3)ccn1)C1(Cl)CC1 [Example 50] | 2.84
CCCC(CCC)C(=O)Nc1cc(-c2c(-c3ccc(F)cc3)nn3c2OCCC3)ccn1 [Example 67] | 2.64
O=C(Nc1cc(-c2c(-c3ccc(F)cc3)nn3c2OCCC3)ccn1)c1c(F)cccc1F [Example 71] | 2.43
CC1(C(=O)Nc2cc(-c3c(-c4ccc(F)cc4)nn4c3OCCC4)ccn2)CC1 [Example 98] | 1.79
CC(=O)CCCC(=O)Nc1cc(-c2c(-c3ccc(F)cc3)nn3c2OCCC3)ccn1 [Example 99] | 1.35
O=C1CCC(C(=O)Nc2cc(-c3c(-c4ccc(F)cc4)nn4c3OCCC4)ccn2)C1 (stereo not shown) [Example 112] | 1.38
O=C(Nc1cc(-c2c(-c3ccc(F)cc3)nn3c2OCCC3)ccn1)c1cncc(F)c1 [Example 114] | 1.96
CC(C)(F)C(=O)Nc1cc(-c2c(-c3ccc(F)cc3)nn3c2OCCC3)ccn1 [Example 115] | 2.38
O=C(Nc1cc(-c2c(-c3ccc(F)cc3)nn3c2OCCC3)ccn1)C1CC1(F)Cl (stereo not shown) [Example 116] | 2.13
CC1(C(=O)Nc2cc(-c3c(-c4ccc(F)cc4)nn4c3OCCC4)ccn2)CCCC1 [Example 117] | 2.23
CC1(C(=O)Nc2cc(-c3c(-c4ccc(F)cc4)nn4c3OCCC4)ccn2)COCOC1 [Example 118] | 1.86
CCC1(C(=O)Nc2cc(-c3c(-c4ccc(F)cc4)nn4c3OCCC4)ccn2)COC1 [Example 119] | 1.56
N#CC1(C(=O)Nc2cc(-c3c(-c4ccc(F)cc4)nn4c3OCCC4)ccn2)CC1 [Example 120] | 2.13
CC1(C(=O)Nc2cc(-c3c(-c4ccc(F)cc4)nn4c3OCCC4)ccn2)CC=CCC1 (stereo not shown) [Example 121] | 2.38
CC(C)=NOCC(=O)Nc1cc(-c2c(-c3ccc(F)cc3)nn3c2OCCC3)ccn1 [Example 122] | 2.13
O=C(Cn1cccn1)Nc1cc(-c2c(-c3ccc(F)cc3)nn3c2OCCC3)ccn1 [Example 123] | 1.63

SMILES | LogP
O=C(CC1CCCOC1)Nc1cc(-c2c(-c3ccc(F)cc3)nn3c2OCCC3)ccn1 (stereo not shown) [Example 124] | 1.57
O=C(Nc1cc(-c2c(-c3ccc(F)cc3)nn3c2OCCC3)ccn1)C1CC=CC1 [Example 125] | 1.76
Cc1occc1C(=O)Nc1cc(-c2c(-c3ccc(F)cc3)nn3c2OCCC3)ccn1 [Example 126] | 1.96
CCC(C)CC(C)C(=O)Nc1cc(-c2c(-c3ccc(F)cc3)nn3c2OCCC3)ccn1 (stereo not shown) [Example 127] | 2.65
O=C(Nc1cc(-c2c(-c3ccc(F)cc3)nn3c2OCCC3)ccn1)C1CCSCC1 [Example 128] | 1.83
O=C(Nc1cc(-c2c(-c3ccc(F)cc3)nn3c2OCCC3)ccn1)C1(C2CC2)CC1 [Example 129] | 2.46
O=C(Nc1cc(-c2c(-c3ccc(F)cc3)nn3c2OCCC3)ccn1)c1ccc(F)s1 [Example 130] | 2.42
CC[C@H](C)CC(=O)Nc1cc(-c2c(-c3ccc(F)cc3)nn3c2OCCC3)ccn1 [Example 131] | 2.1
O=C(CCn1ccnn1)Nc1cc(-c2c(-c3ccc(F)cc3)nn3c2OCCC3)ccn1 [Example 133] | 1.23
Cc1cc(C(=O)Nc2cc(-c3c(-c4ccc(F)cc4)nn4c3OCCC4)ccn2)no1 [Example 134] | 2.53
Cc1noc(C)c1C(=O)Nc1cc(-c2c(-c3ccc(F)cc3)nn3c2OCCC3)ccn1 [Example 135] | 2.06
CC(C)=NOC(C)C(=O)Nc1cc(-c2c(-c3ccc(F)cc3)nn3c2OCCC3)ccn1 (stereo not shown) [Example 136] | 2.34
O=C(Cn1cncn1)Nc1cc(-c2c(-c3ccc(F)cc3)nn3c2OCCC3)ccn1 [Example 137] | 1.32
CC(C)[C@H](NC=O)C(=O)Nc1cc(-c2c(-c3ccc(F)cc3)nn3c2OCCC3)ccn1 [Example 138] | 1.6
O=C(CC1=CCCCC1)Nc1cc(-c2c(-c3ccc(F)cc3)nn3c2OCCC3)ccn1 [Example 139] | 2.46

same assay, conditions: Method C (HPLC, reverse phase C18)

SMILES | LogP
CCC(=O)Nc1cc(-c2c(-c3ccccc3)nn3c2N(C(=O)CC)CCC3)ccn1 [Example 78] | 1.45
C[Si]1(C)COc2c(-c3ccnc(NC(=O)C4CC4)c3)c(-c3cccs3)nn2C1 [Example 87] | 2.08
CCC(=O)N1CCCn2nc(-c3ccc(F)cc3)c(-c3ccnc(N(C(C)=O)C(=O)CC)c3)c21 [Example 90] | 2.39
CCC(=O)Nc1cc(-c2c(-c3ccc(F)cc3)nn3c2N(C(=O)CC)CCC3)ccn1 [Example 91] | 1.62
CCC(=O)N(C)c1cc(-c2c(-c3ccc(F)cc3)nn3c2N(C(=O)CC)CCC3)ccn1 [Example 93] | 2.05
CC(=O)Nc1cc(-c2c(-c3ccc(F)cc3)nn3c2N(C(C)=O)CCC3)ccn1 [Example 94] | 1.26
CCN1CCCn2nc(-c3ccc(F)cc3)c(-c3ccnc(NCc4ccccc4)c3)c21 [Example 97] | 1.86
CC(C)C(=O)Nc1cc(-c2c(-c3ccc(F)cc3)nn3c2OCC(C)(C#N)C3)ccn1 (stereo not shown) [Example 107] | 1.94
CC1(C)COc2c(-c3ccnc(NC(=O)C4CC4)c3)c(-c3ccc(F)cc3)nn2C1 [Example 108] | 2.08
CC(=O)Nc1cc(-c2c(-c3ccc(F)cc3)nn3c2OCC(C)(C)C3)ccn1 [Example 109] | 1.75
CCC(=O)Nc1cc(-c2c(-c3ccc(F)cc3)nn3c2OCC(C)(C)C3)ccn1 [Example 110] | 2.00
CC(C)C(=O)Nc1cc(-c2c(-c3ccc(F)cc3)nn3c2OCC(C)(C)C3)ccn1 [Example 111] | 2.23

same assay, conditions: reverse phase C18 HPLC column, Method B (HPLC, reverse phase C18); read-out: LogP

SMILES | chromatographic logP
CC(F)C(=O)Nc1cc(-c2c(-c3ccc(F)cc3)nn3c2OCCC3)ccn1 (stereo not shown) [Example 113, 2-fluoro-N-{4-[2-(4-fluorophenyl)-6,7-dihydro-5H-pyrazolo[5,1-b][1,3]oxazin-3-yl]pyridin-2-yl}propanamide] | 2

same assay, conditions: reverse phase C18 HPLC column, Method C (HPLC, reverse phase C18); read-out: LogP

SMILES | chromatographic logP
CC(=O)N1CCCn2nc(-c3ccccc3)c(-c3ccnc(N(C(C)=O)C(C)=O)c3)c21 [Example 58, N-acetyl-N-[4-(4-acetyl-2-phenyl-4,5,6,7-tetrahydropyrazolo[1,5-a]pyrimidin-3-yl)pyridin-2-yl]acetamide] | 1.72
CC(=O)Nc1cc(-c2c(-c3ccc(F)cc3)nn3cccnc23)ccn1 [Example 60, N-{4-[2-(4-Fluorophenyl)pyrazolo[1,5-a]pyrimidin-3-yl]pyridin-2-yl}acetamide] | 1.47

same assay, conditions: reverse phase C18 HPLC column, pH 2.3, intermediates of formula [II]; HPLC, reverse phase C18; read-out: LogP (pH 2.3)

SMILES | chromatographic logP
Nc1cc(-c2c(-c3ccccc3)nn3c2OCCC3)ccn1 [[II-1], 4-(2-phenyl-6,7-dihydro-5H-pyrazolo[5,1-b][1,3]oxazin-3-yl)pyridin-2-amine] | 0.87
Nc1cc(-c2c(-c3ccc(F)cc3)nn3c2OCCC3)ccn1 [[II-2], 4-[2-(4-fluorophenyl)-6,7-dihydro-5H-pyrazolo[5,1-b][1,3]oxazin-3-yl]pyridin-2-amine] | 0.95
Nc1cc(-c2c(-c3ccc(F)cc3F)nn3c2OCCC3)ccn1 [[II-3], 4-[2-(2,4-difluorophenyl)-6,7-dihydro-5H-pyrazolo[5,1-b][1,3]oxazin-3-yl]pyridin-2-amine] | 1.01
C[Si]1(C)COc2c(-c3ccnc(N)c3)c(-c3ccc(F)cc3)nn2C1 [[II-4], 4-[7-(4-fluorophenyl)-3,3-dimethyl-3,4-dihydro-2H-pyrazolo[5,1-b][1,3,5]oxazasilin-8-yl]pyridin-2-amine] | 1.66

same assay, conditions: reverse phase C18 HPLC column, pH 2.3, intermediates of formula [IV] and [XXXVII]; HPLC, reverse phase C18; read-out: LogP (pH 2.3)

SMILES | chromatographic logP
C[C@@H]1C[C@@H](C)n2nc(-c3ccc(F)cc3)c(Br)c2O1 (racemic) [[IV-9a], rac-trans-3-bromo-2-(4-fluorophenyl)-5,7-dimethyl-6,7-dihydro-5H-pyrazolo[5,1-b][1,3]oxazine] | 3.91
C[C@@H]1C[C@H](C)n2nc(-c3ccc(F)cc3)c(Br)c2O1 (racemic) [[IV-9b], rac-cis-3-bromo-2-(4-fluorophenyl)-5,7-dimethyl-6,7-dihydro-5H-pyrazolo[5,1-b][1,3]oxazine] | 3.68

same assay, conditions: reverse phase C18 HPLC column, pH 2.7, values in the synthesis examples; HPLC, reverse phase C18; read-out: log P (pH 2.7)

SMILES | chromatographic logP
C[C@@H]1C[C@@H](C)n2nc(-c3ccc(F)cc3)c(Br)c2O1 (racemic) [[IV-9a], rac-trans-3-bromo-2-(4-fluorophenyl)-5,7-dimethyl-6,7-dihydro-5H-pyrazolo[5,1-b][1,3]oxazine] | 3.91
C[C@@H]1C[C@H](C)n2nc(-c3ccc(F)cc3)c(Br)c2O1 (racemic) [[IV-9b], rac-cis-3-bromo-2-(4-fluorophenyl)-5,7-dimethyl-6,7-dihydro-5H-pyrazolo[5,1-b][1,3]oxazine] | 3.68
CC(=O)N1CCCn2nc(-c3ccccc3)c(-c3ccnc(N(C(C)=O)C(C)=O)c3)c21 [Example 58, N-acetyl-N-[4-(4-acetyl-2-phenyl-4,5,6,7-tetrahydropyrazolo[1,5-a]pyrimidin-3-yl)pyridin-2-yl]acetamide] | 1.72
CC(=O)Nc1cc(-c2c(-c3ccc(F)cc3)nn3cccnc23)ccn1 [Example 60, N-{4-[2-(4-Fluorophenyl)pyrazolo[1,5-a]pyrimidin-3-yl]pyridin-2-yl}acetamide] | 1.47
CC(F)C(=O)Nc1cc(-c2c(-c3ccc(F)cc3)nn3c2OCCC3)ccn1 (stereo not shown) [Example 113, 2-fluoro-N-{4-[2-(4-fluorophenyl)-6,7-dihydro-5H-pyrazolo[5,1-b][1,3]oxazin-3-yl]pyridin-2-yl}propanamide] | 2
CC(C)(C)OC(=O)Nc1cc(-c2c(-c3ccccc3)nn3cccnc23)ccn1 [[I-i-2], tert-butyl [4-(2-phenylpyrazolo[1,5-a]pyrimidin-3-yl)pyridin-2-yl]carbamate] | 2.32
Nc1cc(-c2c(-c3ccccc3)nn3c2OCCC3)ccn1 [[II-1], 4-(2-phenyl-6,7-dihydro-5H-pyrazolo[5,1-b][1,3]oxazin-3-yl)pyridin-2-amine] | 0.87
Nc1cc(-c2c(-c3ccc(F)cc3)nn3c2OCCC3)ccn1 [[II-2], 4-[2-(4-fluorophenyl)-6,7-dihydro-5H-pyrazolo[5,1-b][1,3]oxazin-3-yl]pyridin-2-amine] | 0.95
Nc1cc(-c2c(-c3ccc(F)cc3F)nn3c2OCCC3)ccn1 [[II-3], 4-[2-(2,4-difluorophenyl)-6,7-dihydro-5H-pyrazolo[5,1-b][1,3]oxazin-3-yl]pyridin-2-amine] | 1.01
